For one assay, the system named is Scytalidium dimidiatum. The experiment in a line: Antifungal Activity Test 1: MIC by broth microdilution method (Alamar Blue). Format: cell-based. Particulars: Neoscytalidium dimidiatum; for MIC: growth inhibited by 80% or more, read-out: MIC; for MIC90: concentration to be MIC in 9 strains out of the 10 strains (90%), read-out: MIC90. From the text:
Scytalidium dimidiatum strain of clinical isolate obtained by separation and identification from nail or stratum corneum of patients with superficial mycosis was used. The fungi pre-cultured on an SDA medium was suspended in 0.1% (w/v) Tween 80-containing sterile saline and the suspension was filtered through gauze to collect arthrospore. This was suspended in 0.1% (w/v) Tween 80-containing sterile saline, and added to a 20% Alamar Blue-containing medium to 2×10^4 cells/mL to give a fungal inoculum solution.
(§1) Each drug was used after dissolving in DMSO (dimethyl sulfoxide).
(§2) The minimum inhibitory concentration (MIC) was measured by a broth microdilution method. That is, RPMI1640 medium (Sigma-Aldrich) was buffered with 0.165 M morpholine propanesulfonic acid (MOPS, Wako Pure Chemical Industries, Ltd.) to pH 7.0, and a given amount of a solution of the drug in DMSO was added thereto to prepare 2-fold dilution series within the range of 0.00098-4 μg/mL. This was added to a 96-well microplate by 100 μL, a fungal inoculum solution (100 μL, final concentration of fungi to be added: 1.0×10^4 cells/mL) was added, and the mixture was cultured at 35° C. An Alamar Blue reagent was added in advance to the culture medium (final addition concentration: 10%) and, at the time point when the Alamar Blue reagent in the drug-free growth control group changed from blue to red, the culture was discontinued and the absorbance (differential optical density at 570 nm based on 590 nm served as reference) measured. The minimum concentration of the drug that inhibited the growth of the fungus in the growth control group by 80% or more was taken as MIC. The concentration to be MIC (MIC90) in 9 strains out of the 10 strains (90%) measured was determined.
Reference documents for measurement method: Takako Shinoda et al.: opinion proposed by Committee for Clinical Laboratory Standards of The Japanese Society for Medical Mycology (1995-1997), Method for antifungal susceptibility testing of filamentous fungus, Medical Mycology Journal, 40: 239-257, 1999. Clinical Laboratory Standards Institute/National Committee for Clinical Laboratory Standards. Reference method for broth dilution antifungal susceptibility testing of filamentous fungus. Approved Standard M38-A2. Wayne, Pa.: National Committee for Clinical Laboratory Standards, 2008. Test Results

In a further assay the test system is Scytalidium hyalinum. Briefly: Antifungal Activity Test 2: MIC by broth microdilution method (Alamar Blue). Format: cell-based. The note with it: Neoscytalidium hyalinum. On the procedure: as §2
Scytalidium hyalinum strain of clinical isolate available from CBS (Netherlands) was used. The fungus was pre-cultured in an SDA medium, 0.1% (w/v) Tween 80-containing sterile saline was added to give a suspension, which was filtered through gauze to collect arthrospore. This was suspended in 0.1% (w/v) Tween 80-containing sterile saline, and added to a 20% Alamar Blue-containing medium to 2×10^4 cells/mL to give a fungal inoculum solution.
as §1
The test method was the same as in the aforementioned antifungal activity test 1, and the minimum concentration of the drug that inhibited the growth of the fungus in the growth control group by 80% or more was taken as MIC. The MIC range of the 4 strains measured and the geometric mean (GM) of each drug were determined.

The mark [1] stands for this setting: clinical isolate CBS200.88, growth inhibited by 80% or more, read-out: MIC.
Setting [2] is: clinical isolate CBS545.95, growth inhibited by 80% or more, read-out: MIC.
[3] abbreviates: clinical isolate CBS601.85, growth inhibited by 80% or more, read-out: MIC.
Setting [4] is: clinical isolate CBS619.84, growth inhibited by 80% or more, read-out: MIC.
Setting [5] is: geometric mean of the 4 strains measured, read-out: GM (geometric mean of MIC).
Where [6] appears, read: range of the 4 strains measured, read-out: MIC range.

≈ marks a conversion by molar mass, not a printed value. Read-outs that look alike come from different tables or passages of the source.

Take `c1ccc(-c2ccc(C(c3ccccc3)n3ccnc3)cc2)cc1` (stereo not drawn) [BFZ, bifonazole]: the MIC stood at 0.25 µg/mL (≈ 0.805 µM) in the assay with Scytalidium dimidiatum (clinical isolate 530129); 0.13 µg/mL (≈ 0.419 µM) in the assay with Scytalidium dimidiatum (clinical isolate 530142); 0.25 µg/mL (≈ 0.805 µM) in the assay on Scytalidium dimidiatum (clinical isolate 530251); 0.25 µg/mL (≈ 0.805 µM) in the assay on Scytalidium dimidiatum (clinical isolate 530621); 0.13 µg/mL (≈ 0.419 µM) in the assay on Scytalidium dimidiatum (clinical isolate 530633); 0.13 µg/mL (≈ 0.419 µM) with Scytalidium dimidiatum (clinical isolate 530914). The minimum inhibitory concentration (MIC) with Scytalidium dimidiatum (clinical isolate 530946) is 0.25 µg/mL (≈ 0.805 µM); in the assay with Scytalidium dimidiatum (clinical isolate 530999), 0.13 µg/mL (≈ 0.419 µM); in the assay with Scytalidium dimidiatum (clinical isolate 531581) it was 0.25 µg/mL (≈ 0.805 µM); in the assay on Scytalidium dimidiatum (clinical isolate 531869) it was 0.13 µg/mL (≈ 0.419 µM); with Scytalidium hyalinum (setting [1]), 0.063 µg/mL (≈ 0.203 µM); with Scytalidium hyalinum (setting [2]), 0.063 µg/mL (≈ 0.203 µM). Moreover, the minimum inhibitory concentration (MIC) in the assay with Scytalidium hyalinum (setting [3]) is 0.031 µg/mL (≈ 0.0999 µM); with Scytalidium hyalinum (setting [4]), 0.13 µg/mL (≈ 0.419 µM); in the assay with Scytalidium hyalinum (setting [5]) it was 0.063 µg/mL (≈ 0.203 µM); with Scytalidium hyalinum (setting [6]), 0.031 to 0.13 µg/mL (≈ 0.0999 to 0.419 µM). In the assay with Scytalidium dimidiatum, the MIC90 turned out to be 0.25 µg/mL (≈ 0.805 µM).
On to `CCC(C)n1ncn(-c2ccc(N3CCN(c4ccc(OCC5COC(Cn6cncn6)(c6ccc(Cl)cc6Cl)O5)cc4)CC3)cc2)c1=O` (stereo not drawn) [ITZ, itraconazole], for which the MIC in the assay on Scytalidium dimidiatum (clinical isolate 530129), in the assay on Scytalidium dimidiatum (clinical isolate 530142), in the assay with Scytalidium dimidiatum (clinical isolate 530251), with Scytalidium dimidiatum (clinical isolate 530621), in the assay on Scytalidium dimidiatum (clinical isolate 530633) and in the assay on Scytalidium dimidiatum (clinical isolate 530914) was > 4 µg/mL each time. The MIC with Scytalidium dimidiatum (clinical isolate 530946), with Scytalidium dimidiatum (clinical isolate 530999), with Scytalidium dimidiatum (clinical isolate 531581), in the assay with Scytalidium dimidiatum (clinical isolate 531869), in the assay on Scytalidium hyalinum (setting [1]) and in the assay with Scytalidium hyalinum (setting [2]) was > 4 µg/mL each time. The MIC in the assay on Scytalidium hyalinum (setting [3]) was 0.016 µg/mL (≈ 0.0227 µM); in the assay on Scytalidium hyalinum (setting [4]) it was > 4 µg/mL; in the assay with Scytalidium hyalinum (setting [5]), > 4 µg/mL. In addition, in the assay with Scytalidium dimidiatum, the MIC90 is > 4 µg/mL.
With `Clc1ccc(COC(Cn2ccnc2)c2ccc(Cl)cc2Cl)c(Cl)c1` (stereo not drawn) [MCZ, miconazole], the minimum inhibitory concentration (MIC) is 1 µg/mL (≈ 2.4 µM) in the assay with Scytalidium dimidiatum (clinical isolate 530129); 1 µg/mL (≈ 2.4 µM) with Scytalidium dimidiatum (clinical isolate 530142); 1 µg/mL (≈ 2.4 µM) with Scytalidium dimidiatum (clinical isolate 530251); 1 µg/mL (≈ 2.4 µM) in the assay on Scytalidium dimidiatum (clinical isolate 530621); 0.5 µg/mL (≈ 1.2 µM) in the assay with Scytalidium dimidiatum (clinical isolate 530633); 1 µg/mL (≈ 2.4 µM) in the assay on Scytalidium dimidiatum (clinical isolate 530914). In addition, the MIC in the assay with Scytalidium dimidiatum (clinical isolate 530946) is 1 µg/mL (≈ 2.4 µM); in the assay on Scytalidium dimidiatum (clinical isolate 530999), 0.5 µg/mL (≈ 1.2 µM); in the assay with Scytalidium dimidiatum (clinical isolate 531581) it was 0.5 µg/mL (≈ 1.2 µM); in the assay on Scytalidium dimidiatum (clinical isolate 531869), 0.5 µg/mL (≈ 1.2 µM); in the assay with Scytalidium hyalinum (setting [1]), 0.5 µg/mL (≈ 1.2 µM); in the assay on Scytalidium hyalinum (setting [2]) it was 0.5 µg/mL (≈ 1.2 µM). Further, the minimum inhibitory concentration (MIC) with Scytalidium hyalinum (setting [3]) is 0.063 µg/mL (≈ 0.151 µM); in the assay with Scytalidium hyalinum (setting [4]), 0.5 µg/mL (≈ 1.2 µM); in the assay on Scytalidium hyalinum (setting [5]), 0.3 µg/mL (≈ 0.721 µM); in the assay with Scytalidium hyalinum (setting [6]), 0.063 to 0.5 µg/mL (≈ 0.151 to 1.2 µM). Also, in the assay on Scytalidium dimidiatum, the MIC90 stood at 1 µg/mL (≈ 2.4 µM).
As to `CN(C/C=C/C#CC(C)(C)C)Cc1cccc2ccccc12` [TBF, terbinafine], the minimal inhibitory concentration (MIC) in the assay with Scytalidium dimidiatum (clinical isolate 530129) is 0.5 µg/mL (≈ 1.72 µM); with Scytalidium dimidiatum (clinical isolate 530142), 0.25 µg/mL (≈ 0.858 µM); in the assay with Scytalidium dimidiatum (clinical isolate 530251), 0.5 µg/mL (≈ 1.72 µM); with Scytalidium dimidiatum (clinical isolate 530621), 0.5 µg/mL (≈ 1.72 µM); with Scytalidium dimidiatum (clinical isolate 530633) it was 0.25 µg/mL (≈ 0.858 µM); in the assay on Scytalidium dimidiatum (clinical isolate 530914) it was 0.25 µg/mL (≈ 0.858 µM). For the same molecule, the MIC in the assay on Scytalidium dimidiatum (clinical isolate 530946) is 1 µg/mL (≈ 3.43 µM); with Scytalidium dimidiatum (clinical isolate 530999) it was 0.5 µg/mL (≈ 1.72 µM); in the assay with Scytalidium dimidiatum (clinical isolate 531581), 0.5 µg/mL (≈ 1.72 µM); in the assay with Scytalidium dimidiatum (clinical isolate 531869), 0.5 µg/mL (≈ 1.72 µM); in the assay on Scytalidium hyalinum (setting [1]) it was 0.25 µg/mL (≈ 0.858 µM); in the assay on Scytalidium hyalinum (setting [2]) it was 0.5 µg/mL (≈ 1.72 µM). Moreover, the MIC with Scytalidium hyalinum (setting [3]) is 1 µg/mL (≈ 3.43 µM); in the assay with Scytalidium hyalinum (setting [4]) it was 0.25 µg/mL (≈ 0.858 µM); in the assay on Scytalidium hyalinum (setting [5]) it was 0.42 µg/mL (≈ 1.44 µM); in the assay on Scytalidium hyalinum (setting [6]), 0.25 to 1 µg/mL (≈ 0.858 to 3.43 µM). Besides, the MIC90 in the assay with Scytalidium dimidiatum is 0.5 µg/mL (≈ 1.72 µM).
Regarding `CCC(C)(C)c1ccc(CC(C)CN2C[C@@H](C)O[C@@H](C)C2)cc1` (stereo partly drawn) [AMO, amorolfine], the MIC in the assay with Scytalidium dimidiatum (clinical isolate 530129) worked out at 0.5 µg/mL (≈ 1.57 µM); in the assay on Scytalidium dimidiatum (clinical isolate 530142), 1 µg/mL (≈ 3.15 µM); with Scytalidium dimidiatum (clinical isolate 530251), 2 µg/mL (≈ 6.3 µM); in the assay with Scytalidium dimidiatum (clinical isolate 530621) it was 1 µg/mL (≈ 3.15 µM); in the assay with Scytalidium dimidiatum (clinical isolate 530633) it was 0.5 µg/mL (≈ 1.57 µM); in the assay with Scytalidium dimidiatum (clinical isolate 530914), 2 µg/mL (≈ 6.3 µM). For the same molecule, the MIC stood at 1 µg/mL (≈ 3.15 µM) with Scytalidium dimidiatum (clinical isolate 530946); 1 µg/mL (≈ 3.15 µM) in the assay on Scytalidium dimidiatum (clinical isolate 530999); 0.5 µg/mL (≈ 1.57 µM) in the assay on Scytalidium dimidiatum (clinical isolate 531581); 0.5 µg/mL (≈ 1.57 µM) with Scytalidium dimidiatum (clinical isolate 531869); 2 µg/mL (≈ 6.3 µM) with Scytalidium hyalinum (setting [1]); 2 µg/mL (≈ 6.3 µM) in the assay on Scytalidium hyalinum (setting [2]). Moreover, the minimal inhibitory concentration (MIC) with Scytalidium hyalinum (setting [3]), in the assay on Scytalidium hyalinum (setting [4]), in the assay with Scytalidium hyalinum (setting [5]) and in the assay on Scytalidium hyalinum (setting [6]) was 2 µg/mL (≈ 6.3 µM) each time. The MIC90 with Scytalidium dimidiatum was 2 µg/mL (≈ 6.3 µM).

The values above are taken from patent US9040573B2, “Anti-fungal agent” (Nihon Nohyaku Co., Ltd., priority 2011, dated 2015).
